{
  "source": "patent US20250160275A1",
  "about": "“COMPOUNDS FOR MODIFYING MEIOTIC RECOMBINATION AND METHODS RELATING THERETO” (The University of North Carolina at Chapel Hill, priority 2022, published 2025)",
  "key": {"[1]": {"tested_on": "flowering Arabidopsis thaliana plants", "assay": "visual fluorescent pollen transgene assay, crossover frequency in interval I5d (chromosome 5)", "assay_type": "in vivo", "conditions": "10% DMSO and 0.01% Silwet; for genetic map distance: p-value 0.000", "method": "An aqueous solution of 3-aminobutanoic acid was applied to flowering Arabidopsis thaliana plants to enhance the frequency of meiotic recombination (crossovers). Silwet, a spraying adjuvant, was added to the 3-aminobutanoic acid solution at a volume/volume concentration of 0.01%. The solution was applied to the plants by foliar spraying until the plants were drenched. Several concentrations of 3-aminobutanoic acid were used including 0.1, 1, 7.5, 10, 12.5 and 15 mM. As a control, other plants (i.e., control plants) were treated with an aqueous 0.01% solution of Silwet by foliar spraying the solution on the plants until the plants were drenched.\n(§1) Crossover frequencies were measured in pollen from treated and control plants using a visual fluorescent pollen transgene assay as described in Francis et al., Proc Natl Acad Sci USA. 2007; 104 (10): 3913-3918. In this assay pollen tetrads are scored as Parental Ditype (PD), Nonparental Ditype (NPD) or Tetratype (TT) and the frequency of those tetrad classes are used to calculate a genetic map distances in centiMorgans (cM) between reporter genes expressing fluorescent proteins. The genetic map distances between a pair of markers on chromosome 5 were compared between control plants and treated plants. The genetic interval between the two markers was designated as I5d. […] In Table 2, each experimental treatment is paired with data from control plants that were treated and scored together and designated with an experiment number in the first column.\nAn aqueous solution phenethyl isothiocyanate (IUPAC name: 2-isothiocyanatoethylbenzene) was applied to flowering Arabidopsis thaliana plants to enhance the frequency of meiotic recombination (crossovers). Phenethyl isothiocyanate in an aqueous solution containing 10% DMSO and 0.01% Silwet was applied by foliar spray until the plants were drenched. The phenethyl isothiocyanate was first dissolved in 100% DMSO and then diluted to its final concentration with 0.0.1% Silwet in water. Several concentrations of phenethyl isothiocyanate were used including 7.5, 10, and 12.5 mM. Control plants were treated with an aqueous solution of 10% DMSO and 0.01% Silwet by foliar spraying the solution on the control plants until the control plants were drenched.\nas §1, with “4,” for “2,”\nAn aqueous solution BIX-01294 (IUPAC name: N-(1-benzylpiperidin-4-yl)-6,7-dimethoxy-2-(4-methyl-1,4-diazepan-1-yl) quinazolin-4-amine) was applied to flowering Arabidopsis thaliana plants to enhance the frequency of meiotic recombination (crossovers). BIX-01294 in an aqueous solution containing 10% DMSO and 0.01% Silwet was applied by foliar spray until the plants were drenched. The BIX-01294 was first dissolved in 100% DMSO and then diluted to its final concentration with 0.0.1% Silwet in water. Several concentrations of […] were used including 0.5, 1, 2.5 and 5 mM. Control plants were treated with an aqueous solution of 10% DMSO and 0.01% Silwet by foliar spraying the solution on the control plants until the control plants were drenched. […]"}, "[2]": {"tested_on": "rice (Kitaake x Nipponbare F1 plants)", "assay": "meiotic recombination in rice F1 plants, recombinant reads in sequenced pollen DNA", "assay_type": "in vivo, Oryza sativa subspecies japonica", "conditions": "7.5 mM whole-plant spray at panicle stage, 10% DMSO and 0.01% Silwet; pollen harvested after 5-7 days", "source_text": "Meiotic recombination was stimulated in rice by external application of phenethyl isothiocyanate (IUPAC name: 2-isothiocyanatoethylbenzene). First, two parental rice lines, “Oryza sativa subspecies japonica variety Kitaake” (“Kitaake” hereafter) and “Oryza sativa subspecies japonica variety Nipponbare” (“Nipponbare” hereafter) were manually crossed to produce F1 seeds. F1 seeds were germinated and grown to produce F1 plants. PCR was used to genotype the F1 plants and confirm their heterozygosity. When F1 plants produced panicles (inflorescences) they were treated by spraying the whole plant, until saturation, with 7.5 mM phenethyl isothiocyanate in an aqueous solution containing 10% DMSO and 0.01% Silwet. The phenethyl isothiocyanate was first dissolved in 100% DMSO and then diluted to its final concentration with 0.0.1% Silwet in water. Control plants were mock-treated with 10% DMSO and 0.01% Silwet. […] Reads that spanned at least two parental SNPs were selected and binned into those that contained SNPs of only the Kitaake type (non-recombinant), only the Nipponbare type (non-recombinant) or both Kitaake and Nipponbare type (recombinant). The frequency of recombinant reads from treated and untreated plants were compared to detect an increase in meiotic recombination resulting from treatment with phenethyl isothiocyanate."}},
  "data": [
    {"smiles": "S=C=NCCc1ccccc1", "note": "[phenethyl isothiocyanate, 2-isothiocyanatoethylbenzene]", "values": [
      {"measurement": "NPD (Nonparental Ditype pollen tetrads)", "setting": "[1]; 7.5 mM foliar spray, Exp.(2)", "result": 2},
      {"measurement": "PD (Parental Ditype pollen tetrads)", "setting": "[1]; 7.5 mM foliar spray, Exp.(2)", "result": 978},
      {"measurement": "TT (Tetratype pollen tetrads)", "setting": "[1]; 7.5 mM foliar spray, Exp.(2)", "result": 211},
      {"measurement": "genetic map distance", "setting": "[1]; 7.5 mM foliar spray, Exp.(2), DMSO control 5.90 cM", "result": 9.36, "unit": "cM"},
      {"measurement": "NPD (Nonparental Ditype pollen tetrads)", "setting": "[1]; 10 mM foliar spray, Exp.(1)", "result": 0},
      {"measurement": "PD (Parental Ditype pollen tetrads)", "setting": "[1]; 10 mM foliar spray, Exp.(1)", "result": 1840},
      {"measurement": "TT (Tetratype pollen tetrads)", "setting": "[1]; 10 mM foliar spray, Exp.(1)", "result": 370},
      {"measurement": "genetic map distance", "setting": "[1]; 10 mM foliar spray, Exp.(1), DMSO control 5.77 cM", "result": 8.37, "unit": "cM"},
      {"measurement": "NPD (Nonparental Ditype pollen tetrads)", "setting": "[1]; 12.5 mM foliar spray, Exp.(2)", "result": 0},
      {"measurement": "PD (Parental Ditype pollen tetrads)", "setting": "[1]; 12.5 mM foliar spray, Exp.(2)", "result": 868},
      {"measurement": "TT (Tetratype pollen tetrads)", "setting": "[1]; 12.5 mM foliar spray, Exp.(2)", "result": 200},
      {"measurement": "genetic map distance", "setting": "[1]; 12.5 mM foliar spray, Exp.(2), DMSO control 5.90 cM", "result": 9.36, "unit": "cM"},
      {"measurement": "meiotic recombination in treated plants compared to controls", "setting": "[1]; all concentrations (7.5, 10, 12.5 mM)", "result": "increase meiotic recombination"},
      {"measurement": "meiotic recombination in rice", "setting": "[2]", "result": "stimulated"}
    ]}
  ]
}
